In US4929741A, “Propiolophenone derivatives” (Hoffman-La Roche Inc., priority 1987, dated 1990):
Where two headings read alike, the source gives them in different places.

Columns and labels:
[1] = tested on: lesions of the mucous membrane of the stomach; test: Ethanol test (mucosa-protective activity); assay type: in vivo; conditions: Rattus norvegicus; male rats, oral 30 min before absolute ethanol; dosage reducing number of lesions by 50%; read-out: Ethanol Test ID 50
Experimental: The experimental procedure described hereinafter was used to determine the mucosa-protective property:
The oral administration of absolute ethanol to male rats in a dosage of 1 ml per rat leads within 1 hour to bloody lesions of the mucous membrane of the stomach. Various dosages of the substances to be tested (suspended in 0.125% carboxymethycellulose) or of the vehicle alone (control) are administered to the rats orally (1 ml per rat) 30 minutes prior to the treatment with ethanol. One hour after the administration of the ethanol the animals are killed, their stomachs are investigated for the presence of lesions and the number and the total dimension of such lesions are determined. The ID50 is that dosage of a test substance which reduces by 50% the number of lesions in comparison to the control group. […]

[2] = Acute toxicity, single oral administration; conditions: mouse, in vivo, read-out: Toxicity LD 50
gastric acid secretion = test: Gastric acid secretion-inhibiting activity (pylorus ligation, Shay et al.); assay type: in vivo; conditions: Rattus norvegicus; male pylorus-ligated rats, intraduodenal, 5 h; 50% decrease of the secretion; read-out: Gastric acid secretion-inhibition, ID 50
Experimental: The test procedure described hereinafter was used to determine the gastric acid secretion-inhibiting activity:
The pylorus of male rats is ligated under slight ether narcosis in accordance with Shay et al., Gastroenterology 5. 43 (1945). The substances to be tested, suspended in 0.5% carboxymethylcellulose, are administered intraduodenally. Control animals are treated only with the vehicle. Five hours after the ligation the animals are killed, the volume and acidity of their gastric juice are determined and the values obtained are compared with those of control animals. The ID50 is that dosage of a test substance which brings about a 50% decrease of the secretion in comparison to the control animals. In the following Table there are given for a series of representative compounds of formula I and for two compounds of formula II the results of the testing with respect to their mucosa-protective activity ("ethanol test") and to their gastric acid secretion-inhibiting activity. Moreover, this Table contains data concerning the acute toxicity (LD50 in the case of single oral administration to mice).

[3] = single oral administration to mice

Structure (SMILES)	ED50 [1] [mg/kg]	LD50 [2, 3] [mg/kg]	ED50 (gastric acid secretion) [mg/kg]	LD50 ([2]; po) [mg/kg]
COc1ccc(OC)c(C(=O)C#CC(=O)O)c1 [I, 3-(2,5-dimethoxybenzoyl)propiolic acid]	1.9	625 to 1250		
COCCOCCOC(=O)C#CC(=O)c1cc(OC)c(OC)c(OC)c1 [F, 2-(2-methoxyethoxy)ethyl 3-(3,4,5-trimethoxybenzoyl)propiolate]	2.9	> 5000		
COc1cc(C(=O)C#CC(C)O)cc(OC)c1OC (stereo not shown) [V, 4-hydroxy-1-(3,4,5-trimethoxyphenyl)-2-pentyn-1-one]	1.2	156 to 312	3.1	
COC(=O)C#CC(=O)c1cc(OC)c(OC)c(OC)c1 [N, methyl 3-(3,4,5-trimethoxybenzoyl)propiolate]	4.2	> 5000	> 100	
COc1cc(C(=O)C#CCO)cc(OC)c1OC [B, 4-hydroxy-1-(3,4,5-trimethoxyphenyl)-2-butyn-1-one]	1.9	156 to 312	18	
COCCOCCOC(=O)C#CC(=O)c1ccc(OC)cc1 [G, 2-(2-methoxyethoxy)ethyl 3-(4-methoxybenzoyl)propiolate]	2.1	1000 to 2000		
COc1ccc(C(=O)C#CCO)c(OC)c1OC [X, 4-hydroxy-1-(2,3,4-trimethoxyphenyl)-2-butyn-1-one]	0.8	156 to 312	4	
COC(=O)C#CC(=O)c1cc(OC)ccc1OC [H, methyl 3-(2,5-dimethoxybenzoyl)propiolate]	2.2	> 5000		
COc1cc(C(=O)C#CC(=O)N(C)C)cc(OC)c1OC [O, N,N-dimethyl-3-(3,4,5-trimethoxybenzoyl)propiolamide]	2.8	312 to 625	28	
CCOC(C)OCC#CC(=O)c1ccc(F)cc1 (stereo not shown) [R, 4-(1-ethoxyethoxy)-1-(4-fluorophenyl)-2-butyn-1-one]	1.4	80 to 156		
COc1ccc(C(=O)C#CCO)cc1 [T, 4-hydroxy-1-(4-methoxyphenyl)-2-butyn-1-one]	1.2	40 to 80		
O=C(C#CCO)c1ccc2c(c1)OCO2 [U]	1.1			80 to 156
COc1ccc(C(=O)C#CC(=O)O)c(OC)c1OC [K, 3-(2,3,4-trimethoxybenzoyl)-propiolic acid]	3.4	500 to 1000		
COCCOCCOC(=O)C#CC(O)c1cc(OC)c(OC)c(OC)c1 (stereo not shown) [Bb, 2-(2-methoxyethoxy)ethyl 4-hydroxy-4-(3,4,5-trimethoxyphenyl)-2-butynoate]	4	625 to 1250		
CSc1ccc(C(=O)C#CCO)cc1 [Y, 4 hydroxy-1-[4-(methylthio)phenyl]-2-butyn-1-one]	1	156 to 312	2.7	
COC(=O)C#CC(O)c1ccc2c(c1)OCO2 (stereo not shown) [Aa, methyl 4-hydroxy-4-[3,4-(methylenedioxy)phenyl]-2-butynoate]	1.4	312 to 625		
COc1cc(C(=O)C#CC(=O)O)cc(OC)c1OC [L, 3-(3,4,5-trimethoxybenzoyl)-propiolic acid]	4.1	1000 to 2000	56	
COC(=O)C#CC(=O)c1ccc(OC)c(OC)c1OC [D, methyl 3-(2,3,4-trimethoxybenzoyl)propiolate]	2.1	625 to 1250		
O=C(C#CCO)c1ccc(Cl)cc1 [S, 1-(4-chlorophenyl)-4-hydroxy-2-butyn-1-one]	1.2	80 to 156		
CCOC(C)OCC#CC(=O)c1ccc(OC)c(OC)c1OC (stereo not shown) [W, 4-(1-ethoxyethoxy)-1-(2,3,4-trimethoxyphenyl)-2-butyn-1-one]	0.8	312 to 625	9	
O=C(O)C#CC(=O)c1ccc2c(c1)OCO2 [A, 3-[3,4-(Methylenedioxy)benzoyl]propiolic acid]	1.2	625 to 1250	42	
COC(=O)C#CC(=O)c1ccc(O)cc1 [E, methyl 3-(4-hydroxybenzoyl)propiolate]	1.2	312 to 625		
Cc1ccc(C(=O)C#CCO)cc1 [Q, 4-hydroxy-1-(4-methylphenyl)-2-butyn-1-one]	1.5	80 to 156		
COc1ccc(C(=O)C#CC(=O)O)cc1 [C, 3-(4-methoxybenzoyl)propiolic acid]	1.4	625 to 1250		
O=C(C#CCO)c1ccc(F)cc1 [P, 1-(4-fluorophenyl)-4-hydroxy-2-butyn-1-one]	0.9	80 to 156		
COCCOCCOC(=O)C#CC(=O)c1ccc2c(c1)OCO2 [J, 2-(2-methoxyethoxy)ethyl 3-[3,4-(methylenedioxy)-benzoyl]propiolate]	2.3	1250 to 2500	> 100	
COC(=O)C#CC(=O)c1ccc(F)cc1 [M, methyl 3-(4-fluorobenzoyl)propiolate]	4.2	1250 to 2500		
